Test results published in patent publication US20110060036A1, “Branched Multifunctional Nanoparticle Conjugates And Their Use” (EMORY UNIVERSITY, priority 2008, published 2011).

What was measured:
MDA-MB-231 tumor = test: Therapeutic efficacy test in MDA-MB-231 orthotopic tumor model; assay type: in vivo, athymic nude mice; conditions: for therapeutic outcome in small tumors: tumors about 30 mm^3, i.v. weekly; for therapeutic outcome in small tumors / antitumor effect in large tumors: TX equivalent 30 mg/Kg; for antitumor effect in large tumors: tumors about 120 mm^3, i.v., 4 weekly injections
Procedure: The MDA-MB-231 tumor model was used for testing the in-vivo therapeutic efficacy of these polymer-drug conjugates. MDA-MB-231 tumors were developed in the mammary fat pad of athymic nude mice as discussed above. When the average sizes of the tumor reached 100-120 or ˜30 mm^3, mice were randomly sorted into 4 groups (6 mice each group). A paclitaxel equivalent of 30 mg/kg of free drug and polymer drug conjugates were administered i.v. and the injections were performed weekly. Tumor sizes were measured in two dimensions with calipers and volume was calculated using the following formula: Tumor volume=(length×width^2)/2. The end-point size of this tumor model was set at 1,500 mm^3, 20% weight loss or severe ulceration (more than 20% of tumor areas).
Following the in-vivo blood circulation and tumor targeting tests, the anti-tumor activity of these nanoparticles was evaluated in comparison with free TX using the MDA-MB-231 orthotopic tumor model with two serials trials of tumor sizes of about 120 and 30 mm^3.

tumor cell cultures = conditions: cited from earlier work
[1] = room temperature (25 degrees C.); cited from earlier work

Molecule: PG-2′-O— succinyl-paclitaxel [GT]
- therapeutic outcome in small tumors (MDA-MB-231 tumor): delayed response to the treatment
- antitumor effect in large tumors (MDA-MB-231 tumor): significant antitumor effects

Molecule: esperamicin
- IC50 for inhibition of growth of tumor cell cultures (tumor cell cultures): low picomolar range

Molecule: CC(=O)O[C@H]1C(=O)[C@@]2(C)[C@H]([C@H](OC(=O)c3ccccc3)[C@]3(O)C[C@H](OC(=O)[C@H](O)[C@@H](NC(=O)c4ccccc4)c4ccccc4)C(C)=C1C3(C)C)[C@]1(OC(C)=O)CO[C@@H]1C[C@@H]2O [TX, paclitaxel]
- histological analysis of tumor sections: Ki67 expression level (MDA-MB-231 tumor; large tumors, TX equivalent 30 mg/Kg weekly): little difference compared to the control
- therapeutic outcome in small tumors (MDA-MB-231 tumor): delayed response to the treatment
- antitumor effect in large tumors (MDA-MB-231 tumor): little effect on tumor inhibition

Molecule: dynemicin
- IC50 for inhibition of growth of tumor cell cultures (tumor cell cultures): low picomolar range

Molecule: CC(C)CCC[C@@H](C)[C@H]1CC[C@H]2[C@@H]3CC=C4C[C@@H](O)CC[C@]4(C)[C@H]3CC[C@]12C [cholesterol]
- solubility in water [1]: 10 nanograms/ml

Molecule: COc1cccc2c1C(=O)c1c(O)c3c(c(O)c1C2=O)C[C@@](O)(C(=O)CO)C[C@@H]3O[C@H]1C[C@H](N)[C@H](O)[C@H](C)O1 [doxorubicin]
- solubility in water [1]: 1 milligram/ml

Molecule: calicheamicin
- IC50 for inhibition of growth of tumor cell cultures (tumor cell cultures): low picomolar range
